Biological target: T1, adenosine A2b receptor (A2bR) (Homo sapiens, UniProt P29275)
T1 construct: expressed in transfected cells; host or cells: CHO-K1
T1 sequence (P29275 1-332): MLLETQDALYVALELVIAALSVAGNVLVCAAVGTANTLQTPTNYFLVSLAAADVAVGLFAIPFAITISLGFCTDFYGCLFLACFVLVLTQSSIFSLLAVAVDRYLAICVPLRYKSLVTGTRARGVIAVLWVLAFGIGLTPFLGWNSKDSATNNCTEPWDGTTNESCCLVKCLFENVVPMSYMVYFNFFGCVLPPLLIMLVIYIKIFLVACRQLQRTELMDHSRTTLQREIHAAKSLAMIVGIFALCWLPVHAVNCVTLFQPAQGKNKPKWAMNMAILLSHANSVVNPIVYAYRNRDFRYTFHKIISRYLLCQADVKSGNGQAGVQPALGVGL
Experiment: Inhibition of the adenosine A2b receptor cAMP signaling pathway in CHO-K1/A2bR cells (HTRF)
Format: cell-based
Settings: ethyl carbazole 1 μM, Table 2
Excerpt: Determination of the inhibition activity of the compounds of the present invention on the adenosine A2a receptor (A2aR) cAMP signaling pathway, the adenosine A2b receptor (A2bR) cAMP signaling pathway, the adenosine A1 receptor (A1R) cAMP signaling pathway and the adenosine A3 receptor (A3R) cAMP signaling pathway.
The inhibition activity of the compounds of the present invention on the adenosine A2a receptor (A2aR) cAMP signaling pathway, the adenosine A2b receptor cAMP signaling pathway, the adenosine A1 receptor cAMP signaling pathway and the adenosine A3 receptor cAMP signaling pathway was determined by the following method. The experimental method is briefly described as follows:
2.2 Adenosine A2b Receptor
CHO-K1/A2bR cells were cultured in DMEM/F12 medium containing 10% fetal bovine serum and 1 mg/ml G418. The cells were digested with the cell separation buffer during the experiment. The cells were resuspended in the balanced salt buffer containing 20 mM HEPES and 0.1% bovine serum albumin and counted, and the cell density was adjusted to 10^6 cells/ml. In the 384-well plate, each well was added with 5 μl of cell suspension, and 2.5 μl of test compound (4× concentration) formulated with the balanced salt buffer containing 20 mM HEPES, 0.1% bovine serum albumin, 54 μM rolipram and 2.7 U/ml adenosine deaminase, and the plate was incubated at room temperature for 30 minutes. Each well was then added with 2.5 μl of […] (4× concentration) (Torcis, 1691/10) formulated with the balanced salt buffer containing 20 mM HEPES, 0.1% bovine serum albumin, 54 μM rolipram and 2.7 U/ml adenosine deaminase, and the plate was incubated at room temperature for 30 minutes. The final concentrations of the compounds were: 100000, 10000, 1000, 100, 10, 1, 0.1 and 0 nM. The final concentration of […] was 1 μM. Intracellular cAMP concentration was detected with the cAMP dynamic 2 kit. cAMP-d2 and Anti-cAMP-Eu-Cryptate were diluted respectively with the cAMP lysis buffer at a ratio of 1:4. Each well was added with 5 μl of diluted cAMP-d2, followed by addition of 5 μl of diluted Anti-cAMP-Eu-Cryptate, and the plate was incubated at room temperature in the dark for 1 hour. The HTRF signal values were read by the PHERAstar multi-function microplate reader.

Row | Structure (SMILES) | IC50 [nM]
1 | Nc1nnc(-c2ccc3ncccc3c2)c(-c2ccccc2)n1 [Example 3, 5-Phenyl-6-(quinolin-6-yl)-1,2,4-triazin-3-amine] | 47
2 | Cc1ncnc2ccc(-c3nnc(N)nc3-c3ccccc3)cc12 [Example 15, 6-(4-Methylquinazolin-6-yl)-5-phenyl-1,2,4-triazin-3-amine] | 7
3 | Cc1ccnc2c(F)cc(-c3nnc(N)nc3-c3ccccc3)cc12 [Example 16, 6-(8-Fluoro-4-methylquinolin-6-yl)-5-phenyl-1,2,4-triazin-3-amine] | 18

More lines, now with the values ahead:

Row | IC50 [nM] | Structure (SMILES)
4 | 14 | [2H]C([2H])([2H])c1ncnc2ccc(-c3nnc(N)nc3-c3ccc(F)cc3)cc12 [Example 52, 5-(4-Fluorophenyl)-6-(4-(methyl-d3)quinazolin-6-yl)-1,2,4-triazin-3-amine]
5 | 25 | Cc1ncnc2ccc(-c3nnc(N)nc3-c3ccc(F)cc3)cc12 [Example 19, 5-(4-Fluorophenyl)-6-(4-methylquinazolin-6-yl)-1,2,4-triazin-3-amine]
6 | 7 | [2H]C([2H])([2H])c1ccnc2ccc(-c3nnc(N)nc3-c3ccc(F)cc3)cc12 [Example 22, 5-(4-Fluorophenyl)-6-[4-(trideuteromethyl)-6-quinolinyl]-1,2,4-triazin-3-amine]
7 | 25 | Cc1ncnc2c(F)cc(-c3nnc(N)nc3-c3ccccc3)cc12 [Example 45, 6-(8-Fluoro-4-methylquinazolin-6-yl)-5-phenyl-1,2,4-triazin-3-amine]
8 | 22 | Cc1ccnc2ccc(-c3nnc(N)nc3-c3ccccc3F)cc12 [Example 17, 5-(2-Fluorophenyl)-6-(4-methylquinolin-6-yl)-1,2,4-triazin-3-amine]

From patent US11014904B2, “1,2,4-triazine-3-amine derivative, preparation method therefor, and use thereof in medicine” (Jiangsu Hengrui Medicine Co., Ltd., priority 2017, dated 2021)
